Measurements taken from ChEMBL document CHEMBL1153832, “Identification and characterization of UK-201844, a novel inhibitor that interferes with human immunodeficiency virus type 1 gp160 processing” (Antimicrob Agents Chemother, 2007).
The source made the active and inactive calls. The calls are words filed in the database; no cut-off is given here.

What was measured:
[1] = test system: Human immunodeficiency virus 1; assay: Antiviral activity against recombinant HIV1 NL4-3 bearing envelope with D474N substitution infected in human MT2 cells by virus production assay; assay type: functional, organism-based
[2] = test system: Human immunodeficiency virus 1; assay: Antiviral activity against HIV1 NL4-3 infected in human 174XCEM T-cells; assay type: functional, organism-based
[3] = test system: Human immunodeficiency virus 1; assay: Antiviral activity against recombinant HIV1 NL4/3B5'Env chimeric virus infected in human MT2 cells assessed as inhibition of virus-induced CPE; assay type: functional, organism-based; conditions: Human immunodeficiency virus 1, NL4/3B5'Env
[4] = test system: Human immunodeficiency virus 1; assay: Antiviral activity against HIV1 NL4-3 infected in human C8166 cells; assay type: functional, organism-based
[5] = test system: Human immunodeficiency virus 1; assay: Antiviral activity against recombinant HIV1 NL4-3 bearing envelope with S162N, N302Y substitutions infected in human MT2 cells by virus production assay; assay type: functional, organism-based
[6] = test system: Human immunodeficiency virus 1; assay: Ratio of EC50 for recombinant HIV1 NL4-3 bearing envelope with G354E, D474N substitutions to EC50 for parental HIV1 NL4-3; assay type: functional
[7] = test system: Human immunodeficiency virus 1; assay: Antiviral activity against recombinant HIV1 NL4-3 bearing envelope with G354E, D474N substitutions infected in human MT2 cells by virus production assay; assay type: functional, organism-based
[8] = Cytotoxicity against human PM1 cells after 6 days by XTT assay; assay type: cell-based
[9] = test system: Human immunodeficiency virus 1; assay: Antiviral activity against HIV1 NL4-3 transfected in HEK293 cells assessed as inhibition of viral envelope gp160 processing at 7.5 uM by Western blot; assay type: functional; conditions: Human immunodeficiency virus 1, NL4-3, HEK293
[10] = Cytotoxicity against human MT2 cells after 6 days by XTT assay; assay type: cell-based
[11] = test system: Human immunodeficiency virus 1; assay: Ratio of EC50 for recombinant HIV1 NL4-3 bearing envelope with V372E, D474N substitutions to EC50 for parental HIV1 NL4-3; assay type: functional
[12] = test system: Human immunodeficiency virus 1; assay: Ratio of EC50 for recombinant HIV1 NL4-3 bearing envelope with D474N substitution to EC50 for parental HIV1 NL4-3; assay type: functional
[13] = test system: Human immunodeficiency virus 1; assay: Antiviral activity against recombinant HIV1 NL4/3BNt chimeric virus infected in human MT2 cells assessed as inhibition of virus-induced CPE; assay type: functional, organism-based; conditions: Human immunodeficiency virus 1, NL4/3BNt
[14] = Therapeutic index, ratio of CC50 for human MT2 cells to EC50 for HIV1 NL4-3; assay type: cell-based; conditions: read-out: TI
[15] = test system: Human immunodeficiency virus 1; assay: Antiviral activity against HIV1 bearing HIV1 NL4-3 envelope infected in human HeLa CD4 cells coexpressing LTR/beta-Gal gene assessed as reduction in virus-induced beta-galactosidase reporter gene activity after 72 hrs by single-cycle infection assay; assay type: functional, organism-based; conditions: Human immunodeficiency virus 1, HeLa
[16] = test system: Human immunodeficiency virus 1; assay: Ratio of EC50 for recombinant HIV1 NL4-3/3BFL chimeric virus to EC50 for parental HIV1 NL4-3 virus; assay type: functional
[17] = test system: Human immunodeficiency virus 1; assay: Antiviral activity against HIV1 NL4/3BFL chimeric virus infected in human MT2 cells assessed as inhibition of viral p24 antigen level at 2 uM by Western blot; assay type: functional; conditions: Human immunodeficiency virus 1, NL4/3BFL
[18] = test system: Human immunodeficiency virus 1; assay: Antiviral activity against HIV1 NL4-3 infected in human MT2 cells assessed as inhibition of viral p24 antigen level at 1.0 uM by Western blot; assay type: functional; conditions: Human immunodeficiency virus 1, NL4-3, MT2
[19] = test system: Human immunodeficiency virus 1; assay: Antiviral activity against HIV1 Ba-L infected in human PM1 cells assessed as inhibition of viral p24 antigen production after 5 days; assay type: functional, organism-based; conditions: Human immunodeficiency virus 1, Ba-L, PM1, 120 h
[20] = test system: Human immunodeficiency virus 1; assay: Antiviral activity against HIV1 3B infected in human MT2 cells assessed as inhibition of virus-induced cytopathic effect after 6 days by XTT assay; assay type: functional, organism-based; conditions: Human immunodeficiency virus 1, 3B, MT2, 144 h
[21] = test system: Human immunodeficiency virus 1; assay: Antiviral activity against recombinant HIV1 NL4-3 bearing envelope with S162N, N302Y, G354E, V372E, D474N substitutions infected in human MT2 cells by virus production assay; assay type: functional, organism-based
[22] = test system: Human immunodeficiency virus 1; assay: Ratio of EC50 for recombinant HIV1 NL4-3/3BCt chimeric virus to EC50 for parental HIV1 NL4-3 virus; assay type: functional
[23] = test system: Human immunodeficiency virus 1; assay: Antiviral activity against HIV1 bearing HIV1 NL4-3 envelope assessed as reduction in viral envelope-mediated membrane fusion by cell-based fusion assay; assay type: functional, organism-based
[24] = test system: Human immunodeficiency virus 1; assay: Ratio of EC50 for recombinant HIV1 NL4-3 bearing envelope with S162N, N302Y, G354E, V372E, D474N substitutions to EC50 for parental HIV1 NL4-3; assay type: functional
[25] = test system: Human immunodeficiency virus 1; assay: Antiviral activity against parental HIV1 NL4-3 infected in human MT2 cells by virus production assay; assay type: functional, organism-based; conditions: Human immunodeficiency virus 1, NL4-3, MT2
[26] = test system: Human immunodeficiency virus 1; assay: Antiviral activity against HIV1 NL4-3 transfected in HEK293 cells assessed as inhibition of viral envelope gp160 processing at 1.0 uM by Western blot; assay type: functional; conditions: Human immunodeficiency virus 1, NL4-3, HEK293
[27] = test system: Human immunodeficiency virus 1; assay: Antiviral activity against recombinant HIV1 NL4/3BFL chimeric virus infected in human MT2 cells assessed as inhibition of virus-induced CPE; assay type: functional, organism-based; conditions: Human immunodeficiency virus 1, NL4/3BFL
[28] = test system: Human immunodeficiency virus 1; assay: Antiviral activity against HIV1 NL4-3 infected in human MT2 cells assessed as inhibition of virus-induced cytopathic effect after 6 days by XTT assay; assay type: functional, organism-based; conditions: Human immunodeficiency virus 1, NL4-3, MT2, 144 h
[29] = molecular target: T1, Proprotein convertase subtilisin/kexin type 6 (Rattus norvegicus) (UniProt Q63415); assay: Inhibition of rat PACE4 up to 100 uM
T1 sequence (whole entry): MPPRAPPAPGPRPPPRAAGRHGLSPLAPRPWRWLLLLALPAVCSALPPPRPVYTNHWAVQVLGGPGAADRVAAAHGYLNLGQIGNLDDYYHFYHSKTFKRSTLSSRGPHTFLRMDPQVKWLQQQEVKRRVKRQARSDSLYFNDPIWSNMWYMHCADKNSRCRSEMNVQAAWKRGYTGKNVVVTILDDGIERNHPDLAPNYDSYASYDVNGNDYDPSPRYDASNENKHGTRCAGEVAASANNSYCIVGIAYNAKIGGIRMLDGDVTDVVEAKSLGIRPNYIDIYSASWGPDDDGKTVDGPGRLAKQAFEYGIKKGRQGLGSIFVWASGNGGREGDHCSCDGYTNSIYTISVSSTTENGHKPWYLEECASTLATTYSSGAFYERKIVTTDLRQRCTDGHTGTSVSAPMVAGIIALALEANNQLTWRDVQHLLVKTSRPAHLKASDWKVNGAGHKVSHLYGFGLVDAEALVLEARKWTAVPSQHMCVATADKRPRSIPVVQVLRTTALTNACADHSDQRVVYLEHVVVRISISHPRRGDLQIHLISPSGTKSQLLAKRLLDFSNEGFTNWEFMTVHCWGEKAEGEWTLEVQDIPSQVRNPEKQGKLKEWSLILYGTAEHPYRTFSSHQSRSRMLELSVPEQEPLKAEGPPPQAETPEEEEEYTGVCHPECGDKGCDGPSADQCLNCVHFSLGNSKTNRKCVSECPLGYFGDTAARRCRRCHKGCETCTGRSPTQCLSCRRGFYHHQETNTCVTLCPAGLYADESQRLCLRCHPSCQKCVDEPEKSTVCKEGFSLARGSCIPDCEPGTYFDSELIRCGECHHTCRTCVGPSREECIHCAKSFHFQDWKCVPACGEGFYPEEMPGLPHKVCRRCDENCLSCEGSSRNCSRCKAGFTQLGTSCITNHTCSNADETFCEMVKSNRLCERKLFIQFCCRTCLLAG

[30] = test system: Human immunodeficiency virus 1; assay: Antiviral activity against HIV1 NL4-3 infected in human CEM-T4 cells; assay type: functional, organism-based
[31] = test system: Human immunodeficiency virus 1; assay: Antiviral activity against HIV1 bearing VSV envelope infected in human MT2 cells assessed as inhibition of VSV-envelope packed virions at 15 uM after 72 hrs by virus production assay relative to control; assay type: functional; conditions: Human immunodeficiency virus 1, MT2, 72 h

NC(=O)C(c1ccccc1)(c1ccccc1)[C@H]1CCCN(CCc2ccc3c(c2)CCO3)C1
EC50 [1]: 6.1 µM | EC50 [2]: Active | EC50 [3]: > 32 µM | EC50 [4]: Active | EC50 [5]: 8.6 µM | fold change (FC) [6]: >31 | EC50 [7]: > 32 µM | CC50 at 144 h [8]: 47 µM | inhibition at 7.5 µM [9]: 99% | CC50 at 144 h [10]: 53 µM | fold change (FC) [11]: >31 | fold change (FC) [12]: 6 | EC50 [13]: 1.2 µM | selectivity ratio [14]: 41 | EC50 [15]: > 32 µM | fold change (FC) [16]: >25 | inhibition at 2 µM [17]: 2% | inhibition at 1 µM [18]: 44% | EC50 [19]: 24 µM | EC50 [20]: 32 µM | EC50 [21]: > 32 µM | fold change (FC) [22]: 4 | Activity [23]: inactive | fold change (FC) [24]: >31 | EC50 [25]: 1.03 µM | inhibition at 1 µM [26]: 44% | EC50 [27]: > 32 µM | EC50 [28]: 1.3 µM | Activity [29]: inactive | EC50 [30]: Active | inhibition in vivo at 15 µM [31]: -6%
